Read-outs that look alike come from different tables or passages of the source.
Tests used:
[1] = test system: rhodopsin; assay: Rhodopsin regeneration after topical eye drops in mice; type: in vivo, Balb/c mice; conditions: for % of Rhodopsin recovery: 5% in eye drop at 6, 3 and 0 h before dark adaptation, LA + 1 h DA, DA control = 100; for inhibition of rhodopsin regeneration as eye drop: eye drop formulation, summary of Table 7
Description: Panel A: Application scheme and harvesting of the eye. 3 h group received 2 applications and 6 h group received 3 applications. Panel B: Rhodopsin content was measured as pmole/eye. In 1 h in the dark, untreated eyes (NT-LA 1 h DA, no treatment-light adapted followed by 1 hour dark adaptation) and vehicle-treated eyes recovered 75-80% rhodopsin [dark-adapted (DA) control is 100%], whereas 3 h PBN recovered only 43% and 6 h PBN only 29%. (***P<0.0001 compared to vehicle, n=8; ##p<0.005 between 3 h and 6 h group, n=8).
An eye drop formulation was used with various absorption enhancers for topical application of PBN to mouse eyes. […] One hour dark adaptation followed by light causes 75-80% recovery of bleachable rhodopsin in the Balb/c mice (FIG. 18B, NT-LA 1 h DA). The eye drop without PBN (vehicle) had no effect on rhodopsin regeneration (FIG. 18B, vehicle).
Eye drop formulations were prepared as described in Example 7 and contained 5% or 10% of a PBN derivative. The eye drop formulations were applied to Balb/c mice by the 6 h group application scheme shown in FIG. 18A, in which the eye drops were applied at 6, 3, and 0 h before dark adaptation. The eye drops were applied to completely light-adapted mouse eyes, and the mice were then moved to the dark for 1 h to allow the regeneration of bleachable rhodopsin. One hour dark adaptation followed by light causes […] recovery of bleachable rhodopsin in untreated mice (00, No Treatment). The eye drop without any nitrones (vehicle) had no effect on rhodopsin regeneration (000, vehicle).

[2] = test system: rhodopsin; assay: Rhodopsin regeneration after bleach in rats, IP nitrone; type: in vivo, rat; conditions: Rattus norvegicus; rats, 50 mg/kg IP, 2 h room light then 2.5 h dark adaptation
Description: FIG. 10 graphically illustrates the effects of three PBN analogs of rhodopsin regeneration. Rhodopsin content was measured as nmole/retina following the procedure as in Mandal et al. (J Biol. Chem. 2011. 286 (37):32491-501). After injection with PBN derivatives or vehicles (saline), rats were left in room light for 2 hours (light adapted or LA) and then moved to dark. At 2.5 hours dark adaptation (DA), retinas were harvested. DA-Control, Dark adapted (12 h) control retina without any treatment to show normal rhodopsin content.
Measurement of rhodopsin regeneration—To measure the effect of PBN on the rate of rhodopsin regeneration, dark-adapted rats were injected intraperitoneally with PBN (50 mg/kg) or PBS 0.5 hour prior to a 2 hour bleach in room light (˜400 lux). Immediately following the bleach (time=0 minutes), a group of PBN- and vehicle-treated rats were killed, and retinas were removed and snap frozen. The remaining rats were dark-adapted, and retinas were collected under dim red light at 45, 90, and 180 minutes after the bleach.
Rhodopsin measurements were performed as described previously (2,36) with slight modification. Briefly, under dim red light, each retina was homogenized in 450 μl of buffer containing 10 mM Tris-HCl (pH 7.4), 150 mM NaCl, 1 mM EDTA, 2% (w/v) octylglucoside, and 50 mM hydroxylamine. Homogenates were centrifuged at 16,000 g, and soluble lysates were scanned from 270-800 nm in a spectrophotometer (Ultrospec 3000 UV/Vis Spectrophotometer, GE Healthcare, Piscataway, N.J.). Samples were then bleached under room light for 10 minutes and scanned again. The difference spectra at 500 nm between pre- and post-bleached samples were used to determine rhodopsin content using a molar extinction coefficient of […] (37). The values were normalized to the total lysate volume, and data are presented as rhodopsin content/retina.

[3] = target: T1, RPE65 isomerohydrolase (Bos taurus, UniProt Q28175); assay: In vitro RPE65 isomerohydrolase assay with bovine RPE microsomes (Example 3); type: biochemical; conditions: for RPE65 inhibition compared with PBN: summary of Table 1
T1 construct: Bovine RPE microsomes were used as a source of the RPE65 protein; from tissue; host or cells: bovine RPE microsomes
From the text: In this Example, the effect of several PBN analogs on RPE65 isomerohydrolase activity was investigated in an in vitro assay. The chemical structures of the PBN analogs utilized are described herein above. Bovine RPE microsomes were used as a source of the RPE65 protein and all-trans-[^3H] retinol was a substrate for the isomerohydrolase assay. The produced 11-cis-[^3H] retinol was quantified by normal phase HPLC with flow scintillation analyzer. The inhibition of isomerohydrolase activity was dependent on the PBN analog's concentration.
FIG. 9 also illustrates the calculation of IC50 values for the two difluoro-PBN analogs. IC50 values are the concentration of the inhibitor that inhibits 50% of the enzymatic activity. Therefore, the smaller the IC50 value, the better the drug.

[4] = test system: Rat Retina; assay: Light-induced retinal degeneration in rats, systemic (IP) nitrone; ERG and ONL histology; conditions: for A-Wave value at 4 cd·sec/m^2 / B-Wave value at 4 cd·sec/m^2 / A-Wave value at 400 cd·sec/m^2 / B-Wave value at 400 cd·sec/m^2 / % Protection (A-Wave at 4 cd·sec/m^2) / % Protection (A-Wave at 400 cd·sec/m^2) / % Protection (B-Wave at 4 cd·sec/m^2) / % Protection (B-Wave at 400 cd·sec/m^2) / ONL Thickness (μm) Inferior retina / ONL Thickness (μm) Superior retina: 50 mg/kg IP 0.5 h before 2,700 lux 6 h; for A-Wave value at 4 cd·sec/m^2 / B-Wave value at 4 cd·sec/m^2: ERG flash 4.0 cd·sec/m^2 (mostly rod function); for A-Wave value at 400 cd·sec/m^2 / B-Wave value at 400 cd·sec/m^2: ERG flash 400.0 cd·sec/m^2 (rod and cone function); for % Protection (A-Wave at 4 cd·sec/m^2) / % Protection (A-Wave at 400 cd·sec/m^2) / % Protection (B-Wave at 4 cd·sec/m^2) / % Protection (B-Wave at 400 cd·sec/m^2) / % Protection (ONL, Inferior retina) / % Protection (ONL, Superior retina): NLD = 100, Saline LD = 0; for ONL Thickness (μm) Inferior retina / ONL Thickness (μm) Superior retina: histology; for protection of retinal function (ERG A- and B-wave) / protective effect on retinal photoreceptors compared with PBN: 50 mg/kg IP; for protection of retinal function (ERG A- and B-wave): FIGS. 11-12; for protective effect on retinal photoreceptors compared with PBN: ONL histology (FIGS. 14-16)
Description: Consistent with previous publications (1-2,5), a dose of 50 mg/kg PBN and S-PBN dissolved in saline was chosen for intraperitoneal injection in the rats in the treatment group. An equal volume of saline was injected into control rats.
A light-stress paradigm of 2,700 lux for 6 hours was used to test the effect of PBN at different time points before (0.5 hour, 3 hours, 6 hours, 12 hours, 16 hours, and 24 hours) or after (0.5 hour and 3 hours) light exposure. The effect of S-PBN was tested using the same dose and protocol of PBN at 0.5 hours before light exposure.
Electroretinography—After light exposure, rats were returned to their dim cyclic light (5-10 lux) environment for 7 days before ERG recordings were performed. Flash ERGs were recorded with the Diagnosys Espion E2 ERG System (Diagnosys, LLC, Lowell, Mass.). Rats were maintained in total darkness overnight and prepared for ERG recording under dim red light. They were anesthetized with ketamine (120 mg/kg body weight) and xylazine (6 mg/kg body weight) intramuscularly (IM). One drop of 10% (v/v) phenylephrine was applied to the cornea to dilate the pupil, and one drop of 0.5% (v/v) proparacaine HCl was applied for local anesthesia. Rats were kept on a heating pad at 37° C. during recordings. A gold electrode was placed on the cornea, a reference electrode was positioned in the mouth, and a ground electrode was placed on the foot; rats were then placed inside a Ganzfeld illuminating sphere. Responses were differentially amplified, averaged, and stored. For the assessment of rod photoreceptor function (scotopic ERG), five strobe flash stimuli were presented at flash intensities at −2.3, −1.3, 0.7, and 2.7 log cd·s/m^2. The amplitude of the a-wave was measured from the pre-stimulus baseline to the a-wave trough. The amplitude of the b-wave was measured from the trough of the a-wave to the peak of the b-wave. For the evaluation of cone function (photopic ERG), a strobe flash stimulus (3.3 log cd·s/m^2) was presented to dilated, light-adapted (5 minutes at 1.7 log cd·s/m^2) rats. The amplitude of the cone b-wave was measured from the trough of the a-wave to the peak of the b-wave.
Histology—After ERG recordings, rats were killed by carbon dioxide asphyxiation for light microscopic evaluation of retinal structure. Immediately after death, eyes were excised, placed in fixative (4% (w/v) paraformaldehyde, 2% (v/v) trichloroacetic acid, 20% (v/v) isopropyl alcohol, 2% (v/v) zinc chloride, and 72% (v/v) distilled water), and embedded in paraffin. Sections of 5 μm were cut along the vertical meridian through the optic nerve and stained with hematoxylin and eosin (H&E).
The PBN derivatives were injected intraperitoneally (IP) into albino SD rats at 50 mg/kg body weight at 0.5 hours before the start of light-damage exposure at 2,700 lux for 6 hours. After the exposure, the rats were moved to their dim cyclic room to recover for a week. Retinal damage/protection was assessed by functional analysis by ERG and structural analysis of histological sections. Dark adapted (12 hour) and Light adapted (for 2 hour) retinas were utilized as controls.

[5] = apparent IC50, bovine RPE microsomes, all-trans-[3H] retinol substrate (Table 1), read-out: IC50 Values for the Inhibition of RPE65 Isomerohydrolase Reaction
[6] = in vitro RPE65 isomerohydrolase IC50 values repeated in Table 7, read-out: IC50

T1 sequence (Q28175 whole entry): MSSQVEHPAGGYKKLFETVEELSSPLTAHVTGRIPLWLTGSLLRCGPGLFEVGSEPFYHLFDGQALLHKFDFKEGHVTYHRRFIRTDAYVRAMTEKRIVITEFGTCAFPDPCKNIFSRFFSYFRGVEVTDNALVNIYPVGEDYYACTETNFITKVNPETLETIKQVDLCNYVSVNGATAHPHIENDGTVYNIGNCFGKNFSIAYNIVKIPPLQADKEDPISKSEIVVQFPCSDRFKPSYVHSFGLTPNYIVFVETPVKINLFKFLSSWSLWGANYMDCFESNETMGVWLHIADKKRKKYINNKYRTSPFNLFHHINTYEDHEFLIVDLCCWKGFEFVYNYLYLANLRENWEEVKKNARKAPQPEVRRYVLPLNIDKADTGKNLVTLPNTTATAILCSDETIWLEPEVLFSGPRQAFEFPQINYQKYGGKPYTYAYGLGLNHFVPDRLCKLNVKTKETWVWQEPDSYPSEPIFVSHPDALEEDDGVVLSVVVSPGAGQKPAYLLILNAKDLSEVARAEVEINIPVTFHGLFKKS

IC50 [3, 5]	IC50 [3, 6]	SMILES	% of Rhodopsin recovery [1]	inhibition of rhodopsin regeneration as eye drop [1]	inhibition at 50 mg/kg [2]	RPE65 inhibition compared with PBN [3]	A-Wave value at 4 cd·sec/m^2 [4]	B-Wave value at 4 cd·sec/m^2 [4]	A-Wave value at 400 cd·sec/m^2 [4]	B-Wave value at 400 cd·sec/m^2 [4]	% Protection (A-Wave at 4 cd·sec/m^2) [4]	% Protection (A-Wave at 400 cd·sec/m^2) [4]	% Protection (B-Wave at 4 cd·sec/m^2) [4]	% Protection (B-Wave at 400 cd·sec/m^2) [4]	ONL Thickness (μm) Inferior retina [4]	ONL Thickness (μm) Superior retina [4]	protection of retinal function (ERG A- and B-wave) [4]	protective effect on retinal photoreceptors compared with PBN [4]	% Protection (ONL, Inferior retina) [4]	% Protection (ONL, Superior retina) [4]
500 µM	500 µM	COc1ccc(/C=[N+](\[O-])C(C)(C)C)cc1 [Compound 5, 4-Methoxyphenyl t-butyl nitrone]	79.10%	–	–	–	–	–	–	–	–	–	–	–	–	–	–	–	–	–
> 2000 µM	> 2000 µM	CCOc1ccc(/C=[N+](\[O-])C(C)(C)C)cc1 [Compound 6, 4-Ethoxyphenyl t-butyl nitrone]	81.99%	–	–	–	–	–	–	–	–	–	–	–	–	–	–	–	–	–
1300 µM	1300 µM	CC(C)(C)/[N+]([O-])=C/c1ccccc1F [Compound 7, 2-Fluorophenyl t-butyl nitrone]	–	–	–	–	–	–	–	–	–	–	–	–	–	–	–	–	–	–
280 µM	280 µM	CC(C)(C)/[N+]([O-])=C/c1cccc(F)c1 [Compound 8, 3-Fluorophenyl t-butyl nitrone]	–	–	–	–	–	–	–	–	–	–	–	–	–	–	–	–	–	–
500 µM	500 µM	CC(C)(C)/[N+]([O-])=C/c1cc(F)cc(F)c1 [Compound 9, 3,5-Difluorophenyl t-butyl nitrone]	–	–	–	–	–	–	–	–	–	–	–	–	–	–	–	–	–	–
50 µM	50 µM	CC(C)(C)/[N+]([O-])=C/c1ccc(F)c(F)c1 [Compound 10, 3,4-Difluorophenyl t-butyl nitrone]	39.31%	more effective in inhibiting rhodopsin regeneration than PBN	–	more effective at inhibiting RPE65 activity than the native PBN molecule	–	–	–	–	–	–	–	–	–	–	–	–	–	–

SMILES	IC50 [3, 5]	IC50 [3, 6]	% of Rhodopsin recovery [1]	inhibition of rhodopsin regeneration as eye drop [1]	inhibition at 50 mg/kg [2]	RPE65 inhibition compared with PBN [3]	A-Wave value at 4 cd·sec/m^2 [4]	B-Wave value at 4 cd·sec/m^2 [4]	A-Wave value at 400 cd·sec/m^2 [4]	B-Wave value at 400 cd·sec/m^2 [4]	% Protection (A-Wave at 4 cd·sec/m^2) [4]	% Protection (A-Wave at 400 cd·sec/m^2) [4]	% Protection (B-Wave at 4 cd·sec/m^2) [4]	% Protection (B-Wave at 400 cd·sec/m^2) [4]	ONL Thickness (μm) Inferior retina [4]	ONL Thickness (μm) Superior retina [4]	protection of retinal function (ERG A- and B-wave) [4]	protective effect on retinal photoreceptors compared with PBN [4]	% Protection (ONL, Inferior retina) [4]	% Protection (ONL, Superior retina) [4]
CC(C)(C)/[N+]([O-])=C/c1ccc(F)cc1 [Compound 2, 4-Fluorophenyl t-butyl nitrone]	60 µM	60 µM	81.15%	not effective at inhibiting rhodopsin regeneration	88%	more effective at inhibiting RPE65 activity than the native PBN molecule	163.0	572.4	295.7	762.6	90.4%	102.3%	79.5%	99.8%	42.4 ± 1.3 μm	42.0 ± 1.4 μm	protected retinal function significantly	comparable to PBN, and even appears to provide more protection than PBN	100%	96.2%
CC(C)(C)/[N+]([O-])=C/c1ccc(C(F)(F)F)cc1 [Compound 3, 4-Trifluoromethylphenyl t-butyl nitrone]	60 µM	60 µM	52.80%	more effective in inhibiting rhodopsin regeneration than PBN	82%	more effective at inhibiting RPE65 activity than the native PBN molecule	148.1	478.7	234.7	560.0	80.4%	79.7%	64.9%	71.2%	39.8 ± 1.1 μm	36.8 ± 1.4 μm	protected retinal function significantly	comparable to that of PBN	91.6%	83.1%
Cc1ccc(/C=[N+](\[O-])C(C)(C)C)cc1 [Compound 4, 4-Methylphenyl t-butyl nitrone]	100 µM	100 µM	32.54%	more effective in inhibiting rhodopsin regeneration than PBN	54%	–	126.4	369.9	191.3	443.9	65.9%	63.6%	48.1%	54.7%	36.2 ± 1.0 μm	35.2 ± 1.2 μm	protected retinal function significantly	slightly lower than that observed for PBN	79.7%	79.1%

— US20130225694A1, “COMPOSITIONS AND METHODS OF INHIBITING RETINAL DEGENERATION” (Oklahoma Medical Research Foundation, priority 2012, published 2013)
